Data published in patent US20230265151A1, “GIP/GLP1 CO-AGONIST COMPOUNDS” (priority 2020, published 2023).
Read-outs that look alike come from different tables or passages of the source.

Columns and labels:
hGCGR = target: T1, hGCGR (Homo sapiens, UniProt P47871); experiment: Functional cAMP formation (HTRF) in HEK-293 clonal cells expressing hGCGR, 0.1% bovine casein, without or with 1.0% human serum albumin; format: cell-based; conditions: geometric mean, read-out: hGCGR EC50, nM (SEM, n)
T1 construct: expressed in transfected cells
T1 sequence (P47871 26-477): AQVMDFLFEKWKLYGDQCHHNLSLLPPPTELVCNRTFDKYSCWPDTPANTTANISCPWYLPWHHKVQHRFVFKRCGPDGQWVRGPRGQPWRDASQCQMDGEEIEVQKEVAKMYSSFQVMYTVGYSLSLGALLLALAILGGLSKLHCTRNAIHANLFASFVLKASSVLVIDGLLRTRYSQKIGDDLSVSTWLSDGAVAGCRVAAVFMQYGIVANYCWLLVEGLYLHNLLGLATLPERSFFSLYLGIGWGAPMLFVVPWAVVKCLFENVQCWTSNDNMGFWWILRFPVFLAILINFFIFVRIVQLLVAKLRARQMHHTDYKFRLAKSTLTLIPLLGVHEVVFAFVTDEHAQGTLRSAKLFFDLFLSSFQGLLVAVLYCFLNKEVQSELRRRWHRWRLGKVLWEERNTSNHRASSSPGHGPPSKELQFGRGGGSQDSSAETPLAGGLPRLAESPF
Procedure, shortened: (§1)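 Cells were stimulated with peptide for 30 min at 37° C, then lysed in buffer carrying cAMP-d2 and anti-cAMP Eu3+-cryptate for a competitive HTRF read after at least 60 min at room temperature. The 665/620 nm ratio was converted to nM cAMP against a standard curve.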

hGIPR = target: T2, hGIPR (Homo sapiens, UniProt P48546); experiment: Functional cAMP formation (HTRF) in HEK-293 clonal cells expressing hGIPR, 0.1% bovine casein, without or with 1.0% human serum albumin; format: cell-based; conditions: for Emax: 37° C., read-out: hGIPR Emax, % ± SEM; for EC50: cAMP, incubated at 37° C., 0.1% bovine casein (no human serum albumin), geometric mean, read-out: hGIPR EC50, nM (SEM, n)
T2 construct: expressed in transfected cells
T2 sequence (P48546 22-466): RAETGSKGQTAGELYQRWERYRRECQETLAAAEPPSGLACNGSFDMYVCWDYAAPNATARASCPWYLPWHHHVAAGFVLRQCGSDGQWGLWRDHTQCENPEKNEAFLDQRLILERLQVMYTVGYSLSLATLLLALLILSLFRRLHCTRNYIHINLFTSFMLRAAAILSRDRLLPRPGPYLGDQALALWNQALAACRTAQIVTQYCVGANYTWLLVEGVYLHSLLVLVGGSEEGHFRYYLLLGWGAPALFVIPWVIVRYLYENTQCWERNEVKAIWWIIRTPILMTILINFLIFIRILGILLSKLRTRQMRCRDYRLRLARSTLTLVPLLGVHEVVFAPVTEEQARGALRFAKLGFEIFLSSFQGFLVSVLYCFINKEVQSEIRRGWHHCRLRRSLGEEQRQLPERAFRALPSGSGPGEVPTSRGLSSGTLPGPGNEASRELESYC
Procedure, shortened: as §1

hGLP-1R = hGLP-1R (Homo sapiens, UniProt P43220); experiment: Functional cAMP formation (HTRF) in HEK-293 clonal cells expressing hGLP-1R, 0.1% bovine casein, without or with 1.0% human serum albumin; format: cell-based; set-up: expressed in transfected cells; conditions: for Emax: read-out: hGLP-1R Emax, % ± SEM; for EC50: geometric mean, read-out: hGLP-1R EC50, nM (SEM, n)
Chain of hGLP-1R (P43220 24-463): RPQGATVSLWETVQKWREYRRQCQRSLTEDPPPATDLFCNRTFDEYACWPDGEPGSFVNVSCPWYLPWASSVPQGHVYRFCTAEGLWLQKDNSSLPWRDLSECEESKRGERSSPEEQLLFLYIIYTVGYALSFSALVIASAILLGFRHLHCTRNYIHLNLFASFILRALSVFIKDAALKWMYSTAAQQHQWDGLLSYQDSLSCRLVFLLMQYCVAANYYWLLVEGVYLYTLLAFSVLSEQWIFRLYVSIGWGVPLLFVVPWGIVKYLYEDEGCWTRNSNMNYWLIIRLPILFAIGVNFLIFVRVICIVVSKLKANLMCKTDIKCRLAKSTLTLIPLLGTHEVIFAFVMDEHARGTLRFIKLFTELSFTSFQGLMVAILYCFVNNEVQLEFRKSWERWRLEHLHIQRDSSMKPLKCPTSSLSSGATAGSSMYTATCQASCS
Procedure, shortened: as §1

[1] = target: T3, human Gcg receptor (hGcgR) (Homo sapiens, UniProt P47871); experiment: [125I]-Glucagon binding, SPA with membranes of HEK293 cells expressing hGcgR; conditions: human GcgR; geometric mean (SEM, n); read-out: Binding Affinity Ki, nM (SEM, n) hGCGR
T3 construct: expressed in transfected cells; crude membranes
T3 sequence (P47871 26-477): as the sequence (P47871 26-477) above

[2] = 0.1% bovine casein and 1.0% human serum albumin, 37° C.
[3] = cAMP, incubated at 37° C., 0.1% bovine casein (no human serum albumin)
[4] = HEK293, 0.1% bovine casein and 1.0% human serum albumin, percent of maximal response to GIP(1-42)NH2
[5] = HEK293, percent of maximal response to GIP(1-42)NH2, 0.1% bovine casein, arithmetic mean
[6] = HEK293, 0.1% bovine casein and 1.0% human serum albumin, 37° C., percent of maximal response to GLP-1(7-36)NH2
[7] = HEK293, percent of maximal response to GLP-1(7-36)NH2, 37° C., 0.1% bovine casein, arithmetic mean

Row | SMILES | EC50 (hGCGR; [2]) | EC50 (hGCGR; [3]) | Emax (hGIPR; [4]) | Emax (hGIPR; [5]) | Emax (hGLP-1R; [6]) | Emax (hGLP-1R; [7]) | Ki [1] | EC50 (hGIPR) | EC50 (hGLP-1R; [3]) | EC50 (hGLP-1R; [2])
1 | CC[C@H](C)[C@H](NC(=O)[C@H](CC(C)C)NC(=O)[C@](C)(Cc1ccc(O)cc1)NC(=O)[C@@H](CCC(=O)O)NC(=O)[C@@H](NC(=O)[C@H](Cc1ccccc1)NC(=O)[C@H](CCC(=O)O)NC(=O)C(C)(C)NC(=O)[C@H](CCC(N)=O)NC(=O)[C@H](C)NC(=O)[C@H](CCCCNC(=O)COCCOCCNC(=O)COCCOCCNC(=O)CC[C@H](NC(=O)CCCCCCCCCCCCC(=O)O)C(=O)O)NC(=O)[C@H](CCCN)NC(=O)[C@H](CC(=O)O)NC(=O)[C@H](CC(C)C)NC(=O)[C@](C)(Cc1ccccc1)NC(=O)[C@@H](NC(=O)[C@H](CO)NC(=O)[C@H](Cc1ccncc1)NC(=O)[C@H](CC(=O)O)NC(=O)[C@H](CO)NC(=O)[C@@H](NC(=O)[C@](C)(Cc1ccccc1)NC(=O)[C@@H](NC(=O)CNC(=O)[C@H](CCC(=O)O)NC(=O)C(C)(C)NC(=O)[C@@H](N)Cc1ccc(O)cc1)[C@@H](C)O)[C@@H](C)O)[C@@H](C)CC)[C@@H](C)CC)C(=O)N[C@@H](CCC(=O)O)C(=O)NCC(=O)NCC(=O)N[C@@H](CCCCNC(=O)COCCOCCNC(=O)COCCOCCNC(=O)CC[C@H](NC(=O)CCCCCCCCCCCCC(=O)O)C(=O)O)C(=O)N[C@@H](CO)C(=O)N[C@@H](CO)C(=O)NCC(=O)N[C@@H](C)C(=O)N1CCC[C@H]1C(=O)N1CCC[C@H]1C(=O)N1CCC[C@H]1C(=O)N[C@@H](CO)C(N)=O [Example 46] | > 9950 nM | > 9950 nM | 73.3% | 89.5 ± 2.64% | 117% | 79.2 ± 1.23% | > 966 nM |  |  | 
2 | CC[C@H](C)[C@H](NC(=O)[C@H](CC(C)C)NC(=O)[C@](C)(Cc1ccccc1)NC(=O)[C@@H](CCC(=O)O)NC(=O)[C@@H](NC(=O)[C@H](Cc1ccccc1)NC(=O)[C@H](CCC(=O)O)NC(=O)C(C)(C)NC(=O)[C@H](CCC(N)=O)NC(=O)[C@H](C)NC(=O)[C@H](CCCCNC(=O)COCCOCCNC(=O)COCCOCCNC(=O)CC[C@H](NC(=O)CCCCCCCCCCCCC(=O)O)C(=O)O)NC(=O)[C@H](CCCN)NC(=O)[C@H](CC(=O)O)NC(=O)[C@H](CC(C)C)NC(=O)[C@](C)(CC(C)C)NC(=O)[C@@H](NC(=O)[C@H](CO)NC(=O)[C@H](Cc1ccncc1)NC(=O)[C@H](CC(=O)O)NC(=O)[C@H](CO)NC(=O)[C@@H](NC(=O)[C@](C)(Cc1ccccc1)NC(=O)[C@@H](NC(=O)CNC(=O)[C@H](CCC(=O)O)NC(=O)C(C)(C)NC(=O)[C@@H](N)Cc1ccc(O)cc1)[C@@H](C)O)[C@@H](C)O)[C@@H](C)CC)[C@@H](C)CC)C(=O)N[C@@H](CCC(=O)O)C(=O)NCC(=O)NCC(=O)N[C@@H](CCCCNC(=O)COCCOCCNC(=O)COCCOCCNC(=O)CC[C@H](NC(=O)CCCCCCCCCCCCC(=O)O)C(=O)O)C(=O)N[C@@H](CO)C(=O)N[C@@H](CO)C(=O)NCC(=O)N[C@@H](C)C(=O)N1CCC[C@H]1C(=O)N1CCC[C@H]1C(=O)N1CCC[C@H]1C(=O)N[C@@H](CO)C(N)=O [Example 48] | > 9950 nM | > 9950 nM | 90.8% | 91.6 ± 3.38% | 111% | 87.8 ± 6.25% | > 966 nM | 0.0182 nM | 1 nM | 
3 | CC[C@H](C)[C@H](NC(=O)[C@H](CC(C)C)NC(=O)[C@](C)(Cc1ccc(O)cc1)NC(=O)[C@@H](CCC(=O)O)NC(=O)[C@@H](NC(=O)[C@H](Cc1cccc(Cl)c1)NC(=O)[C@H](CCC(=O)O)NC(=O)C(C)(C)NC(=O)[C@H](CCC(N)=O)NC(=O)[C@H](C)NC(=O)[C@H](CCCCNC(=O)COCCOCCNC(=O)COCCOCCNC(=O)CC[C@H](NC(=O)CCCCCCCCCCCCC(=O)O)C(=O)O)NC(=O)[C@H](CCCN)NC(=O)[C@H](CC(=O)O)NC(=O)[C@H](CC(C)C)NC(=O)[C@](C)(CC(C)C)NC(=O)[C@@H](NC(=O)[C@H](CO)NC(=O)[C@H](Cc1ccncc1)NC(=O)[C@H](CC(=O)O)NC(=O)[C@H](CO)NC(=O)[C@@H](NC(=O)[C@](C)(Cc1ccccc1F)NC(=O)[C@@H](NC(=O)CNC(=O)[C@H](CCC(=O)O)NC(=O)C(C)(C)NC(=O)[C@@H](N)Cc1ccc(O)cc1)[C@@H](C)O)[C@@H](C)O)[C@@H](C)CC)[C@@H](C)CC)C(=O)N[C@@H](CCC(=O)O)C(=O)NCC(=O)NCC(=O)N[C@@H](CCCCNC(=O)COCCOCCNC(=O)COCCOCCNC(=O)CC[C@H](NC(=O)CCCCCCCCCCCCC(=O)O)C(=O)O)C(=O)N[C@@H](CO)C(=O)N[C@@H](CO)C(=O)NCC(=O)N[C@@H](C)C(=O)N1CCC[C@H]1C(=O)N1CCC[C@H]1C(=O)N1CCC[C@H]1C(=O)N[C@@H](CO)C(N)=O [Example 62] | > 9950 nM | > 9950 nM | 94.3 ± 0.785% | 96.1 ± 2.64% | 85.8 ± 3.31% | 99.4 ± 5.83% | > 4780 nM | 0.0211 nM |  | 
4 | CC[C@H](C)[C@H](NC(=O)[C@H](CCCN)NC(=O)[C@H](CC(=O)O)NC(=O)[C@H](CC(C)C)NC(=O)[C@](C)(CC(C)C)NC(=O)[C@@H](NC(=O)[C@H](CO)NC(=O)[C@H](Cc1ccncc1)NC(=O)[C@H](CC(=O)O)NC(=O)[C@H](CO)NC(=O)[C@@H](NC(=O)[C@](C)(Cc1ccccc1F)NC(=O)[C@@H](NC(=O)CNC(=O)[C@H](CCC(=O)O)NC(=O)C(C)(C)NC(=O)[C@@H](N)Cc1ccc(O)cc1)[C@@H](C)O)[C@@H](C)O)[C@@H](C)CC)C(=O)N[C@@H](C)C(=O)N[C@@H](CCC(N)=O)C(=O)NC(C)(C)C(=O)N[C@@H](CCC(=O)O)C(=O)N[C@@H](Cc1ccccc1)C(=O)N[C@H](C(=O)N[C@@H](CCCCNC(=O)COCCOCCNC(=O)COCCOCCNC(=O)CC[C@H](NC(=O)CCCCCCCCCCCCC(=O)O)C(=O)O)C(=O)N[C@@](C)(Cc1ccc(O)cc1)C(=O)N[C@@H](CC(C)C)C(=O)N[C@H](C(=O)N[C@@H](CCCCNC(=O)COCCOCCNC(=O)COCCOCCNC(=O)CC[C@H](NC(=O)CCCCCCCCCCCCC(=O)O)C(=O)O)C(=O)NCC(=O)NCC(=O)N1CCC[C@H]1C(=O)N[C@@H](CO)C(=O)N[C@@H](CO)C(=O)NCC(=O)N[C@@H](C)C(=O)N1CCC[C@H]1C(=O)N1CCC[C@H]1C(=O)N1CCC[C@H]1C(=O)N[C@@H](CO)C(N)=O)[C@@H](C)CC)[C@@H](C)CC [Example 70] | > 9950 nM | > 9950 nM | 89.9 ± 0.987% | 89.1 ± 2.3% |  | 100 ± 3.11% | 151 nM | 0.0182 nM |  | 27 nM
5 | CC[C@H](C)[C@H](NC(=O)[C@H](CCCN)NC(=O)[C@H](CC(=O)O)NC(=O)[C@H](CC(C)C)NC(=O)[C@](C)(CC(C)C)NC(=O)[C@@H](NC(=O)C(C)(C)NC(=O)[C@H](Cc1ccncc1)NC(=O)[C@H](CC(=O)O)NC(=O)[C@H](CO)NC(=O)[C@@H](NC(=O)[C@](C)(Cc1ccccc1F)NC(=O)[C@@H](NC(=O)CNC(=O)[C@H](CCC(=O)O)NC(=O)C(C)(C)NC(=O)[C@@H](N)Cc1ccc(O)cc1)[C@@H](C)O)[C@@H](C)O)[C@@H](C)CC)C(=O)N[C@@H](C)C(=O)N[C@@H](CCC(N)=O)C(=O)NC(C)(C)C(=O)N[C@@H](CCC(=O)O)C(=O)N[C@@H](Cc1ccccc1)C(=O)N[C@H](C(=O)N[C@@H](CCCCNC(=O)COCCOCCNC(=O)COCCOCCNC(=O)CC[C@H](NC(=O)CCCCCCCCCCCCC(=O)O)C(=O)O)C(=O)N[C@@](C)(Cc1ccc(O)cc1)C(=O)N[C@@H](CC(C)C)C(=O)N[C@H](C(=O)N[C@@H](CCCCNC(=O)COCCOCCNC(=O)COCCOCCNC(=O)CC[C@H](NC(=O)CCCCCCCCCCCCC(=O)O)C(=O)O)C(=O)NCC(=O)NCC(=O)N1CCC[C@H]1C(=O)N[C@@H](CO)C(=O)N[C@@H](CO)C(=O)NCC(=O)N[C@@H](C)C(=O)N1CCC[C@H]1C(=O)N1CCC[C@H]1C(=O)N1CCC[C@H]1C(=O)N[C@@H](CO)C(N)=O)[C@@H](C)CC)[C@@H](C)CC [Example 219] | > 9950 nM | > 9950 nM | 82.9% | 96.7% |  |  | 135 nM | 0.0227 nM | 0.376 nM | 
